Assay results published in ChEMBL document CHEMBL4616595, “Targeted suppression of metastasis regulatory transcription factor SOX2 in various cancer cell lines using a sequence-specific designer pyrrole-imidazole polyamide” (Bioorg Med Chem, 2020).

System: SW-620
Assay: Antiinvasive activity in human SW620 cells assessed as reduction in cell invasion at 2 uM incubated for 72 hrs by crystal violet staining based assay relative to untreated control
Assay type: functional

## C=C1[C@@H](C)[C@H]2[C@H](Cc3ccccc3)NC(=O)[C@]23[C@H](OC(C)=O)/C=C/[C@@](C)(O)C(=O)[C@@H](C)C/C=C/[C@H]3[C@@H]1O [CYTOCHALASIN D]
  fold change (FC): 4
